What was measured:
Type in all cases: cell-based, human
[1] = system: EGR1; experiment: EGR1 levels (qPCR, Western blot) and EGR1 promoter luciferase assay
Experimental: Whole protein extracts from cells or tumor tissues were analyzed by western blot as previously described (Altieri et al. (2015) Surg. Technol. Int 27: 297-302). Mayo PDX cells were serum starved overnight. Following treatment for specific time, cells were harvested and lysed. The human glioblastoma tissues were ground in liquid nitrogen and then were lysed. EGFR (06-847) antibody was from Millipore. DOCK7 was from Proteintech (Rosemont, Ill.). pEGFR (2236), STAT3 (12640), pSTAT3 (9145), cdc42(4376), and RhoA (4695) antibodies were from Cell Signaling Technology (Danvers, Mass.). TGFα antibody was from R&D system. BIN3 (sc-514396) and (3-Actin (sc-47778) were from Santa Cruz Biotechnology (Dallas, Tex.).
Total RNA from cells was extracted by TRIzol Reagent (Ambion). First-strand cDNA and PCR was performed as described previously (Altieri et al. (2015) Surg. Technol. Int. 27: 297-302). The expression of each gene was normalized to GAPDH as a reference. The following primers were used. BIN3, 5′-[…]-3′ (SEQ ID NO:5) and 5′-[…]-3′ (SEQ ID NO:6); GAPDH, 5′-[…]-3′ (SEQ ID NO:7) and 5′-TGATG-[…]-3′ (SEQ ID NO:8).
Cells were plated in 48 well dishes to 70%-80% confluence followed by transfection with EGR1 promoter plasmid or empty plasmid using lipofectamine 2000. […] Firefly luciferase activity was measured in a luminometer and normalized on the basis of Renilla luciferase activity.

[2] = system: BIN3; experiment: BIN3 expression by Western blot / real-time PCR
Experimental: Mayo PDX cells were serum starved overnight. Following treatment for specific time, cells were harvested and lysed. The human glioblastoma tissues were ground in liquid nitrogen and then were lysed. […] TGFα antibody was from R&D system.
Total RNA from cells was extracted by TRIzol Reagent (Ambion). […] The expression of each gene was normalized to GAPDH as a reference. The following primers were used.
Specifically, Western blot analysis of BIN3 in PDXs in response to EGF was performed (FIG. 4A). Cells were serum starved overnight and treated with 50 ng/ml EGF for 48 hours. BIN3 mRNA levels in EGF-treated PDXs were determined by real-time PCR (FIG. 7B). […] Cells were treated with BIN3 or scrambled siRNA for 48 hours, transfected cells were treated with or without 50 ng/ml EGF for 24 hours. Similar experiments were conducted in GBM6 and GBM22 (FIG. 7D and FIG. 7E). Referring to FIG. 7F, knockdown efficiency of BIN3 siRNA was analyzed by Western blotting. […] Cells were transiently transfected with vector expressing BIN3 for 48 hours followed by invasion assay. […] EGR1 mRNA levels in GBM12 and GBM6 after EGF treatment were determined by real-time PCR (RT-PCR) (FIG. 7I). […] A similar experiment was performed in GBM6 (FIG. 7L). […] A similar experiment was performed in GBM6 (FIG. 7N). Knockdown efficiency of EGR-1 siRNA was analyzed by Western blotting (FIG. 7O). The Western blot images are representative of three independent biological replicates. Actin served as loading control. Data are represented as mean±SEM from three independent experiments. * P<0.05, **P<0.01, unpaired two-tailed t-test.

[3] = system: Mayo PDX cells; experiment: Matrigel invasion assay
Experimental: Invasion status of cells was tested with Matrigel Boyden chamber assays (Fisher). 1×10^5 cells were plated on BD BioCoat Matrigel invasion chambers. 24 hours after treatment with drugs, invaded cells were stained with the HEMA-3 kit (Fisher). Invaded cells were counted in 4-5 random fields.
An equal number of cells (5×10^4) were seeded on Matrigel coated inserts, and were untreated (control vehicle) or stimulated with 50 ng/ml EGF for 24 hours, cells invading to the other side of the membrane were counted and presented as percentage cell invasion. […] A similar invasion assay was conducted on GBM26 cells (FIG. 2D). […] Cells were transfected with EGFR or scrambled siRNA for 48 hours before the invasion assay. A similar invasion assay was performed on GBM6 (FIG. 2G). […] Cells were transiently transfected with empty or EGFR wildtype (EGFRwt) overexpressing vector, and invasion assay was performed after 48 hours after transfection. […] Cells were treated with or without 50 ng/ml EGF for 48 hours before the assay. The Western blot images are representative of three independent biological replicates. Actin served as loading control. Data are represented as mean±SEM from three independent experiments. *P<0.05, **P<0.01, n.s. not significant, unpaired two-tailed Student's t-test.
FIG. 3C and FIG. 3D show the results of a Matrigel invasion assay of EGFR siRNA knockdown in GBM12 and GBM6 in response to EGF. Cells were treated with EGFR or scrambled siRNA for 48 hours, transfected cells were seeded on Matrigel coated inserts and were treated with or without 50 ng/ml EGF for 24 hours. […] Cells were transiently transfected with EGFRvIII expression or empty vector, invasion assay was performed 48 hours after transfection. […] Western blot images are representative of three independent biological replicates. Actin served as a loading control. Data are represented as mean±SEM from three independent experiments. […], **P<0.01, ***P<0.001, n.s. not significant, unpaired two-tailed t-test.

[4] = system: CDC42; experiment: Cdc42 pull down assay (CDC42-GTP); conditions: 24 hours, GBM12 and GBM6
Experimental: The amount of GTP-bound RhoA and Cdc42 were measured using RhoA and Cdc42 pull down assay kit (Cell Signaling) according to the protocol provided by the manufacturer. Briefly, cell lysates were incubated with either glutathione S-transferase (GST)-Rhotekin-RBD or GST-PAK-PBD beads 4° C. for 1 hour to pull down GTP-bound RhoA or Cdc42. Beads were washed four times in washing buffer and re-suspended in lysis buffer. RhoA-GTP and Cdc42-GTP were detected by Western blot using RhoA and Cdc42 antibodies.

Compound: C[C@@H]1CCN(C(=O)CC#N)C[C@@H]1N(C)c1ncnc2[nH]ccc12 [tofacitinib]
- EGR1 levels and activity ([1]; tofacitinib, Western blot 4 hours, luciferase 2 and 24 hours): induces EGR1 levels and activity
- upregulation of BIN3 ([2]; GBM39 and GBM44 (high endogenous EGFR ligand, high BIN3), tofacitinib 1 μM, 48 hours): do not respond
- upregulation of BIN3 ([2]; GBM39 with HBEGF silenced, tofacitinib, 48 hours): could now upregulate BIN3
- BIN3 mRNA level ([2]; tofacitinib 1 μM, 24 hours, PDXs): upregulates BIN3 at the mRNA level
- BIN3 protein level ([2]; tofacitinib 1 μM, 48 hours, multiple PDX lines): strongly upregulated
- BIN3 level ([2]; tofacitinib in cells treated with a saturating concentration of EGF, 48 hours, GBM12 and GBM6): did not induce a further increase
- responsiveness in invasion assay ([3]; GBM39 with HBEGF silenced vs. GBM39 control, tofacitinib 1 μM): more responsive
- cell invasion ([3]; GBM44 with HB-EGF siRNA knockdown, tofacitinib 1 μM): inhibits invasion
- cell invasion ([3]; tofacitinib 1 μM, 24 hours, multiple PDX lines): inhibited invasiveness

Compound: EGF: Recombinant human EGF (AF-100) from Peprotech; EGFR ligand
- EGR1 mRNA, protein and transcriptional activity ([1]; EGF 50 ng/ml, GBM12 and GBM6): upregulation of EGR1 was confirmed
- BIN3 protein level ([2]; EGF 50 ng/ml, 48 hours, Mayo PDX lines, Western blot): robust increase
- BIN3 mRNA level ([2]; EGF-treated PDXs, real-time PCR): regulated by EGF at the mRNA level
- cell invasion ([3]; EGF 50 ng/ml, 24 hours, multiple Mayo PDX explant cultures expressing EGFRwt or EGFRvIII plus EGFRwt): suppressed invasion
- cell invasion ([3]; EGFR overexpressing PDX cells exposed to EGF): invasion is suppressed
- CDC42 activity ([4]; EGF 50 ng/ml): decreases the activity

Compound: HGF: the ligand for Met
- BIN3 levels ([2]; HGF 20 ng/ml, 24 hours): does not affect BIN3 levels
- cell invasion ([3]; HGF 20 ng/ml, 24 hours, GBM12 and GBM6): increased invasiveness
- CDC42 activity ([4]; HGF 20 ng/ml): increase of CDC42 activity was not detected

Reference: patent US20230075368A1, “IDENTIFICATION OF AN EGFR-BIN3 PATHWAY THAT ACTIVELY SUPPRESSES INVASION AND REDUCES TUMOR SIZE IN GLIOBLASTOMA” (The United States Govemment as represented by the …, priority 2020, published 2023)
